Data published in patent publication US9518107B2, “Pharmaceutical compositions containing polypeptides derived from α-1 antitrypsin and methods of use thereof” (YISSUM RESEARCH DEVELOPMENT COMPANY OF THE HEBREW …, priority 2010, dated 2016).

Experiments:
[1] = test system: Female C57BL/6 mice; experiment: Experimental autoimmune encephalitis (EAE), MOG 35-55 induced, neurological score; assay type: in vivo; settings: for neurological symptoms (neurological score 0 to 6): i.p. 1 μg/kg, thrice a week, from four days after MOG immunization, FIG. 3
Protocol: (§1) Female C57BL/6 mice were injected subcutaneously into 4 sites on the back, adjacent to each of the forelimbs and hindlimbs (total amount 200 μl) with a myelin oligodendritic glycoprotein (MOG) 35-55 fragment emulsified with complete Freund's adjuvant. Thereafter, each animal was i.p. injected with pertusis toxin (PTX; 200 ng/mouse) in PBS and an additional
PTX injection was repeated 2 days later, which is a standard protocol for initiating experimental autoimmune encephalomyelitis (EAE) in mice. UBE polypeptide (SEQ ID NO:2) was intraperitoneally (i.p.) injected (0.3 μg/kg, thrice a week) five days after MOG immunization (day of onset of symptoms). The animals were evaluated for neurological score from 0 (no effect) to 6 (severe neurological symptoms including paralysis). Results are the mean±SE of neurological score (sum of all scores divided by the number of animals in each experimental group) at each of the indicated time intervals after MOG injection.
as §1, with “additional PTX injection was repeated 2 days later. Four days after MOG immunization, each mouse received i.p. injections (1 μg/kg, thrice a week) of each of the following polypeptides:” for “additional”
The animals were evaluated for neurological score from 0 (no effect) to 6 (severe neurological symptoms including paralysis). Results are the mean±SE of neurological score (sum of all scores divided by the number of animals in each experimental group) at each of the indicated time intervals after immunization.

[2] = test system: arthritic mice; experiment: Collagen type II induced arthritis, joint swelling; assay type: in vivo; settings: 1 μg/kg thrice a week, from five days after second immunization; FIG. 16
Protocol: Chick collagen type II (2.0 mg) was incubated overnight in 0.01 M acetic acid (0.9 ml) at 4° C. The resulting solution was emulsified with equal volume (1.0 ml) of […] Freund's Adjuvant containing 5.0 mg heat-killed Mycobacterium tuberculosis. Thereafter, the animal was injected intradermally in the tail base with 100 μl of the emulsion and an additional immunization was repeated 21 days later. Five days later, UBE or UBE1 polypeptide were administered (1 μg/kg thrice a week). The animals were evaluated for the difference in joint thickness (mm) between the indicated time intervals and prior to immunization.

[3] = test system: severe sepsis; settings: decrease from about 31% without treatment; further trials failed to replicate; cited from earlier work

## MPPIVRFDHPFLFIIFEEHTQSPLFVGKVVDPTHK (listed as Mus musculus) [UBE-N, peptide corresponding to residues 379-413 of Mus musculus alpha-1-antitrypsin (serpin a1c)]
[1]
  neurological symptoms (neurological score 0 to 6): reduced the neurological symptoms

## SMPPIVRFDHPFLFIIFEEHTQSPLFVGKVVDPTH (listed as Mus musculus) [UBE-C, peptide corresponding to residues 378-412 of Mus musculus alpha-1-antitrypsin (serpin a1c)]
[1]
  neurological symptoms (neurological score 0 to 6): reduced the neurological symptoms

## YSMPPIVRFDHPFLFIIFEEHTQSPLFVGKVVDPTHK (listed as Mus musculus) [UBE1, peptide corresponding to residues 377-413 of Mus musculus alpha-1-antitrypsin (serpin a1c)]
[1]; summary statement, b192 (FIG. 3) does not name UBE1
  neurological damage in animal models of multiple sclerosis: highly effective in eliminating neurological damage
[2]
  joint swelling (difference in joint thickness): reduction in joint swelling

## drotrecogin alfa
[3]
  mortality in severe sepsis: about 25%
